Publication PMC12226049, “Imlunestrant a next-generation oral SERD overcomes ESR1 mutant resistance in estrogen receptor–positive breast cancer” (JCI Insight, 2025)

Molecular target: T1, Estrogen receptor α (ER) (Homo sapiens, UniProt P03372, Y537S)
T1 construct: gene ESR1; HA-tagged ER mutant, doxycycline-inducible in MCF7
T1 sequence (P03372 1-595 Y537S): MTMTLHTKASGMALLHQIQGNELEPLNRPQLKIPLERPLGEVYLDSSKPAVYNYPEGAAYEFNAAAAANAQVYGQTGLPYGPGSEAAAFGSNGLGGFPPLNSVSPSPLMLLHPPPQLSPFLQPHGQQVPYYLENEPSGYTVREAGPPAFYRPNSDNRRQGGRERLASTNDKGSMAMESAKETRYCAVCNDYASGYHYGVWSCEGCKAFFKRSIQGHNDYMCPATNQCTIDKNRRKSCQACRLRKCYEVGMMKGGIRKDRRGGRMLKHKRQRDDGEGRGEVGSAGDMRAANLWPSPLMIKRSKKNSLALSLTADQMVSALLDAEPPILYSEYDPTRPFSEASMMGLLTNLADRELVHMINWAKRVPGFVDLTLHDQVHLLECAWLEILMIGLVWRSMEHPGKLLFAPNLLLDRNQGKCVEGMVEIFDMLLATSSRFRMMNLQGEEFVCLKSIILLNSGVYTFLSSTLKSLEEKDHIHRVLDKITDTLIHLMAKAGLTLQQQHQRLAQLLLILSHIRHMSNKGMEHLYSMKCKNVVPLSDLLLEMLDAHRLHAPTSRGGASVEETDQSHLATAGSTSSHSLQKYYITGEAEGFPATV
Experiment: degradation of HA-tagged ER-Y537S by western blot in MCF7 cells ([…])
Type: cell-based

Oc1ccc2c3c(cnc2c1)-c1ccc(C(F)(F)F)cc1O[C@@H]3c1ccc(OCCN2CC(CF)C2)cc1 [IML, imlunestrant]
degradation of HA-tagged ER-Y537S by western blot in MCF7 cells (100 nM): mutant-ER protein degradation was superior with imlunestrant treatment versus fulvestrant
